# Data as given in article PMC9769880, “Diverse Sensory Repertoire of Paralogous Chemoreceptors Tlp2, Tlp3, and Tlp4 in Campylobacter jejuni” (Microbiology Spectrum, 2022).
# Assays:
# Tlp3 [1] = biological target: T1, Tlp3 (Campylobacter jejuni, UniProt Q0P864); assay: biochemical; type: binding
# Protocol: His-tagged proteins (Tlp2, -3, and -4) were prepared as previously described ([11]) DNA segments encoding the periplasmic sensory domains (33 to 286 amino acids) of Tlp2 and (38 to 297 amino acids) of Tlp4 were amplified (see Table S7), ligated into pGEM-T Easy (Promega) and subcloned into pET-19b (Novagen) (see Table S6). Recombinant proteins were expressed in E. coli BL21(DE3) using 1 mM IPTG (isopropyl-β-D-thiogalactopyranoside) and purified using His-select-nickel chromatography as described previously ([8], [11]). […] Protein concentrations were determined using a NanoDrop spectrophotometer (Thermo Fisher).
# Surface plasmon resonance (SPR) experiments were performed as described previously ([10], [11]) with the following modifications. […] All ligands were prepared in PBS (pH 7.2) and serially diluted from 0.2 to 0.0125 mM. A 10-min dissociation period was allocated after the introduction of each analyte. SPR experiments were performed in single-cycle kinetics mode using the BIAcore S200 biosensor system (Cytiva) at 25°C in PBS (pH 7.2) at a flow rate of 30 μL/min. The equilibrium dissociation constant (KD) for each analyte was determined using BIAcore S200 Evaluation software with a report point 4 s after the injection stop to account for the bulk transfer of the small molecule against a large amount of immobilized protein (as shown in Fig. S5).
# Tlp2 = Tlp2 (Campylobacter jejuni, UniProt Q0PBZ3); type: binding; conditions: yes/no binding
# Protocol: (§1) Glycan (>400 monosaccharides or complex glycans) and small molecule arrays containing amino acids and salts were performed as described previously by Day et al. ([67]). Briefly, 1 μg of purified recombinant protein was complexed with anti-His antibody (Cell Signaling Technology) and rabbit anti-mouse/goat anti-rabbit Alexa 555-IgG (Thermo Scientific) at a molar ratio of 1:0.5:0.25 and then incubated on the array for […] in phosphate-buffered saline (PBS). The array slides were scanned at 488/520 nm and analyzed using InnoScan 1100 with MAPIX software. All arrays were performed in triplicate with a total of 12 data points for each glycan tested; the complete data set and MIRAGE (i.e., minimum information regarding a glycomics experiment) results are shown in Tables S3 and S8.
# (§2) Table S8 - Supplementary glycan microarray document based on M IRAGE guidelines. D O I:
# (§3) Classification Guidelines
# (§4) 1. Sample: Glycan Binding Sample
# (§5) Origin: Helicobacter pylori SS1; produced as a recombinant His - tagged protein in E.
# (§6) The preparation of Tlp2,3, and 4 is explained in the Materials and Methods section:
# (§7) Expression and purification of the periplasmic domain of Tlp2,3, and 4.
# (§8) Sample Sample is a His Tagged protein containing only the periplasmic receptor domain of the modifications full length Tlp2,3, and 4transmembrane protein.
# (§9) Please see Materials and Methods: Tlps 2/3/4 bind to a range of ligands, including […]
# (§10) Proteins were complexed with mouse anti- his antibody, with secondary and tertiary AlexaFluor555 antibodies (rabbit anti-mouse, goat anti-rabbit) at a molar ratio of 4:2:1.
# (§11) The protein/antibody complex was incubated on ice for 10 mins prior to placing on the Assay protocol array. Arrays were performed with 1 µg of complexed protein incubated on the array for 20 min. Arrays were then washed 3 times in Array PBS (PBS + 2mM MgCl2 + 2mM CaCl2) then dried by centrifugation for 3 min at 300 x g . Scanning was performed us ing an Innopsys InnoScan 1100AL and analyzed using Mapix (Innopsys). Yes/no binding was determined by six positive replicate spots in three replicate experiments. Positive […]
# (§12) Glycan Glycans in this study are listed in Table S2 and is a published library in doi:
# (§13) Glycans were prepared in one of two ways for printing:
# (§14) Glycan 1. Glycans (with IDs in number/letter format; e.g. 1A, 4C, 7K) were sourced modifications commercially from Dextra Laboratories, Elicityl and Carbosythn and were made into glycoamines using the protocol published in Day et al 2009 (doi:
# (§15) Glycan arrays: We only use glycan arrays as a yes/no binding tool. Due to this we look only at binding that is unambiguously above background vs lack of binding above background. Average background + 3x standard deviation of the background of 20 sets of 4 spots of DMF:DMSO only spots is applied to determine if binding observed is […]
# (§16) Only spots with values equal to or greater than this value were considered as binding from data of any tested slide. These values are slide […]
# (§17) Data Small molecule arrays: We only use amino acid arrays as a yes/no binding tool. Due interpretation to this we look only at binding that is unambiguously above background vs lack of binding above background. Average background + 3x standard deviation of the background of 6 spots of PBS + 2% glycerol only spots is applied to determine if […]
# (§18) Only spots with values equal to or greater than this value were considered as binding from data of any tested slide. These values are slide dependent. […]
# Tlp4 = Tlp4 (Campylobacter jejuni, UniProt Q0PBP3); type: binding; conditions: yes/no binding
# Protocol: as §1, §2, §3, §4, §5, §6, §7, §8, §9, §10, §11, §12, §13, §14, §15, §16, §17, §18
# Tlp3 [2] = biological target: T1, Tlp3; assay: Glycan/small molecule arrays with Tlp3; conditions: yes/no binding
# Protocol: as §1, §2, §3, §4, §5, §6, §7, §8, §9, §10, §11, §12, §13, §14, §15, §16, §17, §18
# Tlp3^LBD K149A = Tlp3^LBD K149A (Campylobacter jejuni, UniProt Q0P864, K149A); assay: biochemical
# Tlp3^LBD W151A = Tlp3^LBD W151A (Campylobacter jejuni, UniProt Q0P864, W151A); assay: biochemical
# Tlp3^LBD D169A = Tlp3^LBD D169A (Campylobacter jejuni, UniProt Q0P864, D169A); assay: biochemical
# Tlp3^LBD D170A = Tlp3^LBD D170A (Campylobacter jejuni, UniProt Q0P864); assay: biochemical
# Tlp3^LBD D170A, sequence (Q0P864 41-290 T170A): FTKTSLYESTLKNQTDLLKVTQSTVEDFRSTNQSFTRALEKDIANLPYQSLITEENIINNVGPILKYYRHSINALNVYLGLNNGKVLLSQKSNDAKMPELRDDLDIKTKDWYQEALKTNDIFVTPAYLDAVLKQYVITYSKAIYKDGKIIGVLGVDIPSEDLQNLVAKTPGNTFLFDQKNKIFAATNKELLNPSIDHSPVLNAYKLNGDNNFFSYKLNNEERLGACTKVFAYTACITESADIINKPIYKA
# T1 sequence (Q0P864 entry or part of it): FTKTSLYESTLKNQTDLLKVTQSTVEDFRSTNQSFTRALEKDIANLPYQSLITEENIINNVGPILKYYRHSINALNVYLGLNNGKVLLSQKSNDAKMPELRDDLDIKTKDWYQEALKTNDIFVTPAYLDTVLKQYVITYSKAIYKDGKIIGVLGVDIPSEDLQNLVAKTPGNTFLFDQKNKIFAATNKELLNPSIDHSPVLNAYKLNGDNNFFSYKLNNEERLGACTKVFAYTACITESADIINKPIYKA
# Tlp3^LBD D169A, sequence (Q0P864 41-290 D169A): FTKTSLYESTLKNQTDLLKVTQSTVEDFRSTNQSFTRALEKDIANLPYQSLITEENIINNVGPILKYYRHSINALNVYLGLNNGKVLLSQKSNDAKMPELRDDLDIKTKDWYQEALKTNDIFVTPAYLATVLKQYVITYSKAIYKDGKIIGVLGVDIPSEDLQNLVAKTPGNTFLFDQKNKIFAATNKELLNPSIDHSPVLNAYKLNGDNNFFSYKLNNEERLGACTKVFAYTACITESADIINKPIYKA
# Tlp3^LBD W151A, sequence (Q0P864 41-290 W151A): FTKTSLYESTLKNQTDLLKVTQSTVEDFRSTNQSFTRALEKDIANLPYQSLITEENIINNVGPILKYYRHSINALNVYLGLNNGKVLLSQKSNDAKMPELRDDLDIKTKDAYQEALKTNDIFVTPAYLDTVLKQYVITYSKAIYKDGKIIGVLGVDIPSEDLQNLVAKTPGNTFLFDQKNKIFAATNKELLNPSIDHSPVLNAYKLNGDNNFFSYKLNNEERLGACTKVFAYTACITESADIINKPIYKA
# Tlp4, sequence (Q0PBP3 entry or part of it): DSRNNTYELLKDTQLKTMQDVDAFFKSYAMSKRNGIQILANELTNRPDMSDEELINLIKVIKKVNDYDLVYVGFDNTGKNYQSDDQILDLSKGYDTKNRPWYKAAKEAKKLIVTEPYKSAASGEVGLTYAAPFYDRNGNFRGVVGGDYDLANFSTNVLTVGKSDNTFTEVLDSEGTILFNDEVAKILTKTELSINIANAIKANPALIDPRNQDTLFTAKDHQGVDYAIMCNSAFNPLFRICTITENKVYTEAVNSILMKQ
# Tlp2, sequence (Q0PBZ3 entry or part of it): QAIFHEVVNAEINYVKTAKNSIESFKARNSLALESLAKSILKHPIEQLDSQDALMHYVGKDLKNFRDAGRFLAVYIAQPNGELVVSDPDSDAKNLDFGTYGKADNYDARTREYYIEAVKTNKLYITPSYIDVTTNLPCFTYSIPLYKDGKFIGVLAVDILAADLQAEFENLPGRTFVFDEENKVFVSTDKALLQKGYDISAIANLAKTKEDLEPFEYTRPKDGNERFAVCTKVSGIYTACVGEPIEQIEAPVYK
# Tlp3^LBD K149A, sequence (Q0P864 41-290 K149A): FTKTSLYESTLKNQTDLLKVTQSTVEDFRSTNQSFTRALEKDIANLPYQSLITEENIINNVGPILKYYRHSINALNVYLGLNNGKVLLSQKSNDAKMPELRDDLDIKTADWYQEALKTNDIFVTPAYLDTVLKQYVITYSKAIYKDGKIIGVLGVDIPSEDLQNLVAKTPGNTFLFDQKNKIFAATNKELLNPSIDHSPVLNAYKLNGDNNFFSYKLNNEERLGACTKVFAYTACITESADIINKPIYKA
Structure (SMILES),Kd (Tlp3 [1]) [µM],binding to Tlp2 on glycan/small molecule array (Tlp2),binding to Tlp4 on glycan/small molecule array (Tlp4),binding to Tlp3 on glycan/small molecule array (Tlp3 [2]),Kd (Tlp3^LBD K149A) [µM],Kd (Tlp3^LBD W151A) [µM],Kd (Tlp3^LBD D169A) [µM],Kd (Tlp3^LBD D170A) [µM]
C[C@H](O)[C@@H](O)[C@@H](O)[C@H](O)C=O [Fucose],25.2 ± 6.5,interacted,interacted,interacted,63.7 ± 16.8,66.9 ± 14.6,50 ± 17.6,46.6 ± 16.1
NCCCC[C@H](N)C(=O)O [Lysine],4.3 ± 1.6,bound,bound,bind specifically,32.3 ± 5.3,27.3 ± 5.9,29.2 ± 4.9,14.5 ± 4.8
CC(=O)N[C@H]1[C@H]([C@H](O)[C@H](O)CO)OC(O)(C(=O)O)C[C@@H]1O (stereo partly drawn) [Sialic acid],9 ± 0.2,interacted,interacted,interacted,24 ± 6.6,17.3 ± 4.4,25.2 ± 8.5,16.6 ± 2
